Measured values from patent publication US7709645B2, “Pyrrolo-pyridine kinase modulators” (SGX Pharmaceuticals, Inc., priority 2004, dated 2010).

What follows are molecules tested against T1, Abl T315I kinase domain (unphosphorylated) (Mus musculus, UniProt P00520, T315I) (assay: Abl_T315I Bioassay (c-Abl PK/LDH coupled enzyme assay)). Conditions: 10 μM ATP.
T1 construct: purified and unphosphorylated T315I Abl kinase domain; made in house; host or cells: E. coli BL21(DE3) strains
T1 sequence (P00520 242-493 T315I limits assumed): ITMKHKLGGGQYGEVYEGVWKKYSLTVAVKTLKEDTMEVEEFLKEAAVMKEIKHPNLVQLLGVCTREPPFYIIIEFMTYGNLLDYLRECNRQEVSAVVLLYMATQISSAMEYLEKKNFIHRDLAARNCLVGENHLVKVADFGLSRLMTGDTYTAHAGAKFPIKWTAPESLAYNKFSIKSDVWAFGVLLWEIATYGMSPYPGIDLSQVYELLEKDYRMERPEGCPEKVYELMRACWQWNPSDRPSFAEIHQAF
Assay type: biochemical
Text: Although the first of these examples uses the kinase domain of a mutant form of Abl T315I (“Abl T315I KD”), the kinase assays may use various forms of mutant and wild type enzymes, including, for example, the entire protein, the kinase domain, or a portion thereof (e.g. Abl Y393F). The kinases used in the assays may also be of varying phosphorylation states. In the c-Abl example, a mutant kinase at a zero phosphorylation state was used.
In the c-Abl Pyruvate Kinase (PK)/Lactate Dehydrogenase (LDH) Coupled Assay the protein kinase dependant phosphorylation of a substrate peptide was coupled to the oxidation of NADH. The oxidation of NADH to NAD+ was detected by monitoring a decrease in absorbance at 340 nm.
Materials: Abl substrate peptide=EAIYAAPFAKKK (SEQ ID NO:1)-OH (Biopeptide, San Diego, Calif.); βNADH (Sigma Cat#N-8129, FW=709.4); 2M MgCl2; 1M HEPES buffer, pH 7.5; Phosphoenolpyruvate (PEP) (Sigma Cat#P-7002, FW=234); Lactate dehydrogenase (LDH) (Worthington Biochemical Cat#2756); Pyruvate Kinase (PK) (Sigma Cat#P-9136); ATP (Sigma Cat#A-3377, FW=551); Greiner 384-well UV star plate; and purified and unphosphorylated T315I Abl kinase domain.
Stock Solutions: 10 mM NADH (7.09 mg/ml in miliQH2O) made fresh daily; 10 mM Abl substrate peptide (13.4 mg/ml in miliQH2O) stored at −20° C.; 100 mM HEPES buffer, pH 7.5 (5 ml 1M stock+45 ml miliQH2O); 100 mM MgCl2 (5 ml 2M MgCl2+95 ml dH2O); 100 mM PEP (23.4 mg/ml in dH2O) stored at −20° C.; 10 mM ATP (5.51 mg/ml in dH2O) stored at −20° C. (diluted 50 μl into total of 10 ml miliQH2O daily=50 μM ATP working stock); 1000 U/ml PK (U/mg varies with lot) flash-frozen under liquid N2 and stored at −80° C.; and 1000 U/ml LDH (U/mg varies with lot) flash-frozen under liquid N2 and stored at −80° C.
Standard Assay Setup for 384-well format (50 μl reaction): 300 μM NADH; 10 mM MgCl2; 2 mM PEP; 45 U/ml PK; 60 U/ml LDH; 200 μM Abl substrate peptide; 2.5 μl test compound (in DMSO); 2 μg/ml Abl kinase domain; 10 μM ATP; 100 mM HEPES buffer. Positive controls contained DMSO with no test compound. Negative controls contained 5 μl of 0.5M EDTA (50 mM in the assay). The dephosphorylated form of the c-Abl T315I mutant was used in the biochemical screening assays. The kinase reaction was initiated at time t=0 by the addition of ATP.
Activity was measured by following the time-dependent loss of NADH by absorbance spectroscopy at 340 nm. The linear portion of the resulting progress curve was then analyzed by linear regression to get the activity in absorbance units/time, reported as the slope of that best fit line (moles/unit time can be calculated from using molar extinction coefficient for NADH at 340 nm, 6250M^−1 cm^−1).
Data was evaluated using the equation: Z′=1−[3*(σ++σ−)/|μ+−μ−|](Zhang, et al., 1999 J Biomol Screening 4(2) 67-73), where μ denotes the mean and σ the standard deviation. The subscript designates positive or negative controls. The Z′ score for a robust screening assay should be ≧0.50. The typical threshold=μ+−3*σ+. Any value that falls below the threshold was designated a “hit”.
Dose response was analyzed using the equation: y=min+{(max−min)/(1+10^[compound]−logIC50)}, where y is the observed initial slope, max=the slope in the absence of inhibitor, min=the slope at infinite inhibitor, and the IC50 is the [compound] that corresponds to ½ the total observed amplitude (Amplitude=max−min).
To measure modulation, activation, or inhibition of Abl KD, a test compound was added to the assay at a range of concentrations. Inhibitors may inhibit Abl KD activity at an IC50 in the micromolar range, the nanomolar range, or, for example, in the subnanomolar range.
An open-reading frame for c-Abl was amplified from a Mus musculus (mouse) cDNA library prepared from freshly harvested mouse liver using a commercially available kit (Invitrogen) by PCR using the following primers: […]
The c-Abl T315I KD (kinase domain) was purified as follows. […]

IC50, < 50 nM:
COCCOc1ccc(-c2cnc3[nH]cc(-c4ccccc4OC)c3c2)cc1OCCOC [AE68]
COc1ccccc1-c1c[nH]c2ncc(-c3ccc(S(N)(=O)=O)s3)cc12 [AE11]
COc1ccccc1-c1c[nH]c2ncc(-c3ccc[nH]3)cc12 [AE67]
CNC(=O)c1cc(-c2cnc3[nH]cc(-c4ccccc4OC)c3c2)cs1 [AE2]
COc1cc(-c2cnc3[nH]cc(-c4ccc(O)cc4)c3c2)ccc1O [AE58]
COc1ccccc1-c1c[nH]c2ncc(-c3ccc(S(N)(=O)=O)cc3)cc12 [AE21]
O=C(c1cncc(-c2cnc3[nH]cc(-c4ccc5cc[nH]c5c4)c3c2)c1)N1CCOCC1 [AE14]
Oc1cccc(-c2cnc3[nH]cc(-c4ccc(O)c(F)c4)c3c2)c1 [AE48]
COc1ccccc1-c1c[nH]c2ncc(-c3ccc(O)c(CN4CCCN(C)CC4)c3)cc12 [AE41]
Oc1cccc(-c2cnc3[nH]cc(-c4ccn[nH]4)c3c2)c1 [AE49]
COc1ccccc1-c1c[nH]c2ncc(-c3ccc4[nH]cc(CC(=O)O)c4c3)cc12 [AE10]
c1cc2cc(-c3c[nH]c4ncc(-c5ccc6[nH]cnc6c5)cc34)ccc2[nH]1 [AE22]
COc1ccccc1-c1c[nH]c2ncc(-c3cc[nH]c(=O)c3)cc12 [AE9]
COc1cc(-c2cnc3[nH]cc(-c4ccccc4OC)c3c2)ccc1OCCN1CCCC1 [AE65]
COc1ccccc1-c1c[nH]c2ncc(-c3cccc(C(=N)N4CCCCC4)c3)cc12 [AE42]
COc1ccccc1-c1c[nH]c2ncc(-c3csc(C(=O)N(C)C)c3)cc12 [AE3]
COc1ccccc1-c1c[nH]c2ncc(-c3ccc(CN(C)C)cc3)cc12 [AE8]
COc1ccccc1-c1c[nH]c2ncc(-c3cccc(S(C)(=O)=O)c3)cc12 [AE13]
Nc1nc(-c2c[nH]c3ncc(-c4ccc5[nH]ccc5c4)cc23)cs1 [AE55]
COc1cc(-c2cnc3[nH]cc(-c4ccccc4OC)c3c2)ccc1O [AE64]
CNC(=O)c1cncc(-c2cnc3[nH]cc(-c4ccccc4OC)c3c2)c1 [AE1]
N#Cc1cc(-c2cnc3[nH]cc(-c4ccc5[nH]ccc5c4)c3c2)ccc1O [AE20]
